From PubChem BioAssay AID1648 (Sanford-Burnham Center for Chemical Genomics, 2009) come the findings set out here.

Activity calls are given as the source filed them. The rule behind the calls is not given here.

In this assay the target is Serine/threonine-protein kinase mTOR (Homo sapiens) (UniProt P42345). Nature of the assay: mTOR FRB domain ligand binding – biophysical, NMR (AID 1648). Particulars: NMR binding to FRB domain, chemical shift.
Chain of Serine/threonine-protein kinase mTOR (Homo sapiens) (P42345 2015-2114): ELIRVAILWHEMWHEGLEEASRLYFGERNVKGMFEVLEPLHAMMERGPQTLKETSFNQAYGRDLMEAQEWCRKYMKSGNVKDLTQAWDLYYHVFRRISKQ
In the case of `Cn1cnnc1SCC(=O)Nc1ccccc1`, the Kd is > 4 mM (inactive). As to `Cc1nnc(C)n1/N=C/c1cccs1`, the Kd is > 4 mM (inactive). Regarding `CC(C)c1ccc2c(c1O)CC[C@H]1C3=C(CC[C@]21C)C(=O)OC3`, the Kd was > 4 mM (inactive).

For the compound `COc1cccc(C(=O)N2CCOCC2)c1`, the Kd was > 4 mM (inactive). For `CCOC(=O)c1cc(C)n(C)n1` the value was > 4 mM (inactive). For `O=C1N=C(N2CCOCC2)S/C1=C\c1cccnc1` the value was > 4 mM (inactive).

With `CCCCCC/C=C\CCCCCCCc1cccc(O)c1C(=O)O`, the Kd was > 4 mM (inactive). For `CSc1ccc(C(=S)N2CCN(C)CC2)cc1` the value was > 4 mM (inactive).

As to `CCc1ccc2oc(-c3cc(N)cc(C)c3O)nc2c1`, the Kd was > 4 mM (inactive).

Consider `CC(C)NC(=O)Cc1c(O)c2ccccc2[nH]c1=O`, for which the Kd is > 4 mM (inactive). With `CC(C)NC(=O)c1cc(-n2cnnc2)ccc1Cl`, the Kd is > 4 mM (inactive).

For `CC(=O)Nc1c(C)n(C)n(-c2ccccc2)c1=O`, the Kd is > 4 mM (inactive). For `Cn1c(=O)n(C)c2nc([N+](=O)[O-])c(Cl)cc21` the value was > 4 mM (inactive). `Cc1nc(N)sc1C(=O)Nc1nccs1`: the Kd is > 4 mM (inactive). For the compound `CN1CCn2c1nc(N1CCOCC1)nc2=O`, the Kd is > 4 mM (inactive). With `OCc1cc(-c2cccs2)on1`, the Kd was > 4 mM (inactive). As to `O=C(NC(O)C(=O)c1ccccc1)c1ccco1` (centres undefined), the Kd was > 4 mM (inactive). On to `O=C(Nn1cnnc1)c1cc2c(s1)CCCC2`, for which the Kd is > 4 mM (inactive). Regarding `O=C1c2cccnc2C(=O)N1Cc1ccco1`, the Kd was > 4 mM (inactive). Regarding `COc1ccc(CN2CCOCC2)c(C)c1C`, the Kd was > 4 mM (inactive).

With `Nc1cccc(-c2cnco2)c1`, the Kd was > 4 mM (inactive). For `CCN1CCC(NC2CCC(O)CC2)CC1` (centres undefined), the Kd was > 4 mM (inactive).

Consider `Nc1nc(-c2ccccc2)cc(=O)[nH]1`, for which the Kd is > 4 mM (inactive).

In the case of `Cc1cc(C)n(-c2cccc3cccnc23)n1`, the Kd was > 4 mM (inactive). For `OCc1cc(F)cc2c1OCOC2`, the Kd is > 4 mM (inactive). Turning to `O=C(O)C1CSC(c2cccnc2)N1` (centres undefined), the Kd is > 4 mM (inactive). For `Cn1c(=O)c2c(ncn2CCNC2=NCCC2)n(C)c1=O`, the Kd was > 4 mM (inactive). Regarding `Cc1ccc(-c2c(C)n([O-])c3c([n+]2=O)CCCC3)o1`, the Kd is > 4 mM (inactive). On to `CC(=O)Nc1ccccc1-c1ccccc1NC(C)=O`, for which the Kd was > 4 mM (inactive).

As to `O=C(O)c1ccc(CSc2ncn[nH]2)cc1`, the Kd was > 4 mM (inactive). For `O=C(O)c1ccc2[nH]c3c(c2c1)CSCC3` the value was > 4 mM (inactive). As to `O=C(O)c1cccc(O)c1O`, the Kd is > 4 mM (inactive). As to `O=c1cc(O)n(-c2ccc(F)cc2)c(=S)[nH]1`, the Kd is > 4 mM (inactive). As for `O=C(NC(=S)NCCO)c1ccccc1`, the Kd is > 4 mM (inactive). In the case of `C[C@H]1C[C@@H](O)[C@]2(O)[C@@]13CC(=O)OC[C@@]2(C)[C@](C)(O)C(=O)C3`, the Kd was > 4 mM (inactive).

In the case of `COc1c(-c2coc3cc4c(cc3c2=O)CC(OC(C)=O)C(C)(C)O4)ccc2c1C=CC(C)(C)O2` (centres undefined), the Kd was > 4 mM (inactive). Consider `O=C(CS(=O)(=O)c1ccccc1)N1CCCCCC1`, for which the Kd was > 4 mM (inactive). For the compound `O=C(/C=C/C=C/c1ccc2c(c1)OCO2)N1CCCCC1`, the Kd is > 4 mM (inactive). In the case of `COCc1cc(=O)oc2cc(N)ccc12`, the Kd was > 4 mM (inactive). Take `CCOC(=O)c1cc2ccccc2oc1=O`: the Kd was > 4 mM (inactive). Turning to `O=C(O)Cn1nnn(-c2ccccc2)c1=S`, the Kd was > 4 mM (inactive). The same measure for `CC1CCC(N2CCN(c3ncccn3)CC2)CC1` (centres undefined): > 4 mM (inactive); for `Cc1noc(C)c1C(=O)N1CCC(Cc2ccccc2)CC1`: > 4 mM (inactive).

Turning to `OCc1csc(-c2cccs2)n1`, the Kd was > 4 mM (inactive).

With `CC(C)CCCC(C)C1CCC2C3=CC[C@H]4C[C@@H](O)CC[C@]4(C)C3CC[C@@]21C` (some centres undefined), the Kd is > 4 mM (inactive). On to `COC(=O)c1c(C)c2c(c(C)c1O)OC(=O)c1c(C)c(Cl)c(O)c(Cl)c1O2`, for which the Kd was > 4 mM (inactive). `CC(=O)Nc1ccc(NC(C)=O)c(C(F)(F)F)c1`: the Kd is > 4 mM (inactive). Consider `COC(=O)c1c(SC)nc(-c2ccccc2)[nH]c1=O`, for which the Kd was > 4 mM (inactive). For `Cn1c(SCC(=O)NCCO)nc2ccccc2c1=O`, the Kd is > 4 mM (inactive). For the compound `O=C1CSC(=S)N1N1C(=O)C2C3C=CC(C3)C2C1=O` (centres undefined), the Kd was > 4 mM (inactive). Take `Fc1ccc(F)c(CN2CCN(c3ncccn3)CC2)c1`: the Kd is > 4 mM (inactive). With `CC1=NN(c2ccc(C)cc2)C(=O)C1`, the Kd was > 4 mM (inactive). For `O=c1[nH]cc(NCc2ccccc2)c(=O)[nH]1` the value was > 4 mM (inactive); for `CC(=O)NC(c1ccccc1)c1cccnc1` (centres undefined), > 4 mM (inactive); for `COC(=O)/C(=C1\OC(=O)C(c2ccccc2)C1=O)c1ccccc1` (centres undefined), > 4 mM (inactive). For `CC(=O)O[C@H]1C[C@@]2(C)[C@@H](C[C@@H](O)C3[C@]2(C)CC[C@H]2[C@H](C)[C@H](O)CC[C@]32C)/C1=C(/CCC=C(C)C)C(=O)O` (some centres undefined), the Kd was > 4 mM (inactive). For the compound `COc1ccc(C2=CC(=O)C=CC2=O)cc1`, the Kd is > 4 mM (inactive). Consider `Cc1ccc(N2C(=O)C3C4C=CC(O4)C3C2=O)cc1` (centres undefined), for which the Kd was > 4 mM (inactive). As to `Cc1ccc2nc(NC(=O)CN3CCOCC3)sc2c1`, the Kd is > 4 mM (inactive).

As for `COc1c(C)c2c(c(O)c1C/C=C(\C)CCC(=O)O)C(=O)OC2`, the Kd is > 4 mM (inactive). On to `NC(=O)/C=C/C(=O)Nc1ccccc1`, for which the Kd was > 4 mM (inactive).

Consider `O=C(c1cc2ccccc2o1)c1nc2c(n1O)CCCCC2`, for which the Kd is > 4 mM (inactive). For the compound `OCC1CCCN2CCCCC12` (centres undefined), the Kd was > 4 mM (inactive). For `OCc1ccc(-n2cncn2)cc1`, the Kd was > 4 mM (inactive). For `O=C(O)CC(O)c1nc2ccccc2[nH]1` (centres undefined) the value was > 4 mM (inactive). `OC12CC3CC(CC(C3)C1)C2`: the Kd is > 4 mM (inactive). For `Cc1cccnc1NC1=NCC(C)S1` (centres undefined), the Kd was > 4 mM (inactive). For `Cc1oc(-c2ccccc2)cc1C(=O)O`, the Kd was > 4 mM (inactive).

For the compound `Cn1c(=O)n(C)c2cc(C(N)=O)ccc21`, the Kd was > 4 mM (inactive).

On to `Cc1cc(NC(=O)c2ccc3c(c2)OCCO3)no1`, for which the Kd was > 4 mM (inactive). For `Cc1cn(C(=O)CN2C(=O)c3ccccc3C2=O)c(C)n1` the value was > 4 mM (inactive).

`CSc1ccccc1C(=O)N1CCOCC1`: the Kd was > 4 mM (inactive).

In the case of `Nc1cc(C(F)(F)F)ccc1N1CCOCC1`, the Kd was > 4 mM (inactive).

With `O=C(O)CCC(=O)Nc1nnc(C(F)(F)F)s1`, the Kd is > 4 mM (inactive).
